Experimental data from ChEMBL document CHEMBL1124790, “Angiotensin converting enzyme inhibitors. 10. Aryl sulfonamide substituted N-[1-carboxy-3-phenylpropyl]-L-alanyl-L-proline derivatives as novel antihypertensives” (J Med Chem, 1990).

Columns and labels:
[1] = molecular target: T1, Angiotensin-converting enzyme (Oryctolagus cuniculus, UniProt P12822); experiment: In vitro inhibition of angiotensin I converting enzyme (ACE) in rabbit lung; type: tissue-based
T1 sequence (P12822 whole entry): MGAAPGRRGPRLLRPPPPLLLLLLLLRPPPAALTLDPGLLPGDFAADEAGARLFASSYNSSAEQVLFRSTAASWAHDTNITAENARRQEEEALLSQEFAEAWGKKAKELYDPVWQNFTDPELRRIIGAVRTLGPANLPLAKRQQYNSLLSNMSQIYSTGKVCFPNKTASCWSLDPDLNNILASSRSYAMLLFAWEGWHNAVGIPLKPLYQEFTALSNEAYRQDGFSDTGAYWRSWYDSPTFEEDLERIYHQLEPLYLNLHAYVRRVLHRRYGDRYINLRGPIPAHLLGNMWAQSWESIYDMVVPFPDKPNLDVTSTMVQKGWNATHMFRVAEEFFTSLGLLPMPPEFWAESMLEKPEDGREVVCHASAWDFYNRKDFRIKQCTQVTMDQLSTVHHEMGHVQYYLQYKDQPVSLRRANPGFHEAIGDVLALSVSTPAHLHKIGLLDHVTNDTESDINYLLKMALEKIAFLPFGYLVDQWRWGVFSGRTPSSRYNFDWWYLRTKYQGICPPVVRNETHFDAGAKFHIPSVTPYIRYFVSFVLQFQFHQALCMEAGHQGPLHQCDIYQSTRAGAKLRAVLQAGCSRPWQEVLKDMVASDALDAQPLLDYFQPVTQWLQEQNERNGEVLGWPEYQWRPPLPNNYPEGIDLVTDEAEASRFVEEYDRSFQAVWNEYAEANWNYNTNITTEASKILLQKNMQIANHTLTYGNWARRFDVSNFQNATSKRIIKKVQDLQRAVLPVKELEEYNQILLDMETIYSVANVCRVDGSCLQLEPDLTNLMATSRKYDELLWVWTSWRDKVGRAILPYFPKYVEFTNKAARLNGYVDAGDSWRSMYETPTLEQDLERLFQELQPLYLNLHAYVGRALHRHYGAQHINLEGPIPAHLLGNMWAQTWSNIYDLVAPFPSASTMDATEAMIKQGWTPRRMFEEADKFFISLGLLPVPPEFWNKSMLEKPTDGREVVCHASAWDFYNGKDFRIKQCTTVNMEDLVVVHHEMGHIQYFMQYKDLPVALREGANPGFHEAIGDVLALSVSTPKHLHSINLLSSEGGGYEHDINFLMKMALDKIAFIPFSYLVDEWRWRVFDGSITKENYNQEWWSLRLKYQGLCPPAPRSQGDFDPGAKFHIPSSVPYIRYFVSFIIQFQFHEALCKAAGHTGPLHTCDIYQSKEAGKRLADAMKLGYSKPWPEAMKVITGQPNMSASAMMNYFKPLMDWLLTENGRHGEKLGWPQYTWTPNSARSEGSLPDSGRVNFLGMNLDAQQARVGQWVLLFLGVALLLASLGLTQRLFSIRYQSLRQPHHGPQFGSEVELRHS

[2] = molecular target: T2, Angiotensin-converting enzyme (Oryctolagus cuniculus) (UniProt P12822); experiment: In vivo inhibition of angiotensin I converting enzyme (ACE) in rabbit lung after (iv) administration of a dose of 10(mg/kg); type: organism-based
T2 sequence (whole entry): T1 sequence (P12822 whole entry)

Rattus norvegicus [3] = experiment: Percent change in K+ in fasted rats at the dose of 100 mg/kg (iv), 0-5 h; type: functional
Rattus norvegicus [4] = experiment: Percent change in K+ in fasted rats at the dose of 100 mg/kg (iv), 5-24 h; type: functional
Rattus norvegicus [5] = experiment: Percent change in urinary volume in fasted rats at the dose of 100 mg/kg (iv), 0-5 h; type: functional, Urine
Rattus norvegicus [6] = experiment: Percent change in Na+in fasted rats at the dose of 100 mg/kg (iv), 5-24 h; type: functional
[7] = molecular target: T2, Angiotensin-converting enzyme (Oryctolagus cuniculus); experiment: Time to inhibit maximum angiotensin I converting enzyme in rabbit lung; type: functional, tissue-based
[8] = molecular target: T2, Angiotensin-converting enzyme (Oryctolagus cuniculus); experiment: Time during which angiotensin I converting enzyme inhibition is greater than or equa to 30% in rabbit lung; type: functional, tissue-based
Rattus norvegicus [9] = experiment: Percent change in urinary volume in fasted rats at the dose of 100 mg/kg (iv), 5-24 h; type: functional, Urine
Rattus norvegicus [10] = experiment: Percent change in Na+ in fasted rats at the dose of 100 mg/kg (iv), 0-5 h; type: functional

C[C@H](N[C@@H](CCc1ccccc1)C(=O)O)C(=O)N1C[C@@H](NS(=O)(=O)c2cc(S(N)(=O)=O)c(N)cc2Cl)C[C@H]1C(=O)O
IC50 [1]: 6.5 nM
inhibition [2]: 76%
Change (Rattus norvegicus [3]): 0%
Change (Rattus norvegicus [4]): 0%
Change (Rattus norvegicus [5]): -49%
Change (Rattus norvegicus [6]): 38%
Time to max. inhibition [7]: 0.3 h
Duration [8]: 3.7 h
Change (Rattus norvegicus [9]): 60%
Change (Rattus norvegicus [10]): -57%
